According to publication PMC3466204 (PLoS ONE, 2012):
Ends that are not written are not given here.

System: Lactococcus lactis HP
Assay: Agarose-based assay of cell-free supernatants of S29X producing strains
Conditions: for Zone Diameter (mm): agarose (1%) GM17 assay, 10 µl cell-free supernatant of overnight producing culture in 4.6 mm wells, L. lactis HP, 30°C; for % difference (zone relative to wild type): agarose assay of supernatants against L. lactis HP, wild type serine = 100
Experimental: Agarose-based deferred antagonism assays were carried out as follows: GM17/LB (0.03%) underlay was prepared with 10 mM sodium phosphate buffer (SPB) at pH 7.4 to which was added agarose (1% w/v agarose), autoclaved and cooled to 50°C. Bacteria grown to mid-logarithmic phase were harvested by centrifugation and washed with 10 mM SPB at pH 7.4. Bacteria were then added to 15 mls cooled underlay medium to reach a concentration of 2×10^7 colony-forming units (CFU)/mL. The inoculated medium was rapidly transferred into sterile Petri plates, allowed to solidify and dried. Wells (4.6 mm in diameter) were then made in the seeded plates. 10 µl volumes of cell-free supernatant from overnight nisin derivative producing cultures or resuspended purified peptides were then added to the wells and the plates incubated at 30°C (L. lactis) or 37°C (Gram positive strains) or RT (Gram negative strains) for 3 hours. Polymyxin B (Sigma Aldrich) was used at a concentration of 20 µg/ml. The plates were then overlaid with 15 mls of autoclaved double strength GM17 (L. lactis) or LB (Gram negatives) agarose (1% w/v agarose) overlay medium precooled to 50°C. The plates were then incubated overnight at the relevant temperature.

Row | Substance | Zone Diameter (mm) | % difference (zone relative to wild type) [%]
1 | S29C: nisin A S29 saturation derivative, cysteine at position 29 (ITSISLCTPGCKTGALMGCNMKTATCHCCIHVSK; not fully specified; cysteine pairing not given here; UniProt P13068 24-57, looked up, variant S29C) | 10.5±1.0 | 69
2 | S29F: nisin A S29 saturation derivative, phenylalanine at position 29 (ITSISLCTPGCKTGALMGCNMKTATCHCFIHVSK; not fully specified (bridges); also: lantibiotic nisin A (lanthionine rings, dehydrated residues not placed); UniProt P13068 24-57, looked up, variant S29F) | 11.0±1.0 | 72
3 | S29H: nisin A S29 saturation derivative, histidine at position 29 (ITSISLCTPGCKTGALMGCNMKTATCHCHIHVSK; not fully specified (bridges); also: lantibiotic nisin A (lanthionine rings, dehydrated residues not placed); UniProt P13068 24-57, looked up, variant S29H) | 10.9±0.3 | 72
4 | S29I: nisin A S29 saturation derivative, isoleucine at position 29 (ITSISLCTPGCKTGALMGCNMKTATCHCIIHVSK; not fully specified; cysteine pairing not given here; UniProt P13068 24-57, looked up, variant S29I) | 9.9±1.0 | 65
5 | S29K: nisin A S29 saturation derivative, lysine at position 29 (ITSISLCTPGCKTGALMGCNMKTATCHCKIHVSK; not fully specified (bridges); also: lantibiotic nisin A (lanthionine rings, dehydrated residues not placed); UniProt P13068 24-57, looked up, variant S29K) | 9.9±1.0 | 64
6 | S29L: nisin A S29 saturation derivative, leucine at position 29 (ITSISLCTPGCKTGALMGCNMKTATCHCLIHVSK; not fully specified; cysteine pairing not given here; UniProt P13068 24-57, looked up, variant S29L) | 12.7±0.7 | 84
7 | S29N: nisin A S29 saturation derivative, asparagine at position 29 (ITSISLCTPGCKTGALMGCNMKTATCHCNIHVSK; not fully specified; cysteine pairing not given here; UniProt P13068 24-57, looked up, variant S29N) | 12.6±1.0 | 83
8 | S29P: nisin A S29 saturation derivative, proline at position 29 (ITSISLCTPGCKTGALMGCNMKTATCHCPIHVSK; not fully specified (bridges); also: lantibiotic nisin A (lanthionine rings, dehydrated residues not placed); UniProt P13068 24-57, looked up, variant S29P) | 13.7±1.0 | 89
9 | S29Q: nisin A S29 derivative, glutamine at position 29, made by site-directed mutagenesis (ITSISLCTPGCKTGALMGCNMKTATCHCQIHVSK; not fully specified; cysteine pairing not given here; UniProt P13068 24-57, looked up, variant S29Q) | 15.3±0.1 | 100
10 | S29R: nisin A S29 saturation derivative, arginine at position 29 (ITSISLCTPGCKTGALMGCNMKTATCHCRIHVSK; not fully specified (bridges); also: lantibiotic nisin A (lanthionine rings, dehydrated residues not placed); UniProt P13068 24-57, looked up, variant S29R) | 11.0±0.6 | 72
11 | S29T: nisin A S29 saturation derivative, threonine at position 29 (ITSISLCTPGCKTGALMGCNMKTATCHCTIHVSK; not fully specified (bridges); also: lantibiotic nisin A (lanthionine rings, dehydrated residues not placed); UniProt P13068 24-57, looked up, variant S29T) | 12.1±0.9 | 79
12 | S29V: nisin A S29 saturation derivative, valine at position 29 (ITSISLCTPGCKTGALMGCNMKTATCHCVIHVSK; not fully specified (bridges); also: lantibiotic nisin A (lanthionine rings, dehydrated residues not placed); UniProt P13068 24-57, looked up, variant S29V) | 11.6±0.4 | 76
13 | S29W: nisin A S29 saturation derivative, tryptophan at position 29 (ITSISLCTPGCKTGALMGCNMKTATCHCWIHVSK; not fully specified; cysteine pairing not given here; UniProt P13068 24-57, looked up, variant S29W) | 12.1±1.2 | 79
14 | S29Y: nisin A S29 saturation derivative, tyrosine at position 29 (ITSISLCTPGCKTGALMGCNMKTATCHCYIHVSK; not fully specified (bridges); also: lantibiotic nisin A (lanthionine rings, dehydrated residues not placed); UniProt P13068 24-57, looked up, variant S29Y) | 10.6±0.6 | 70
